These results are taken from patent US20090232909A1, “Method for determining physiological effects of hemoglobin” (priority 1999, published 2009).

The target in this experiment is Hb (Homo sapiens, UniProt P68871+P69905). Briefly: EPR of iron nitrosyl-Hb formed by limiting NO with variously oxygenated Hb. It is filed as biochemical. More on the design: purchased Apex Bioscience (Research Triangle Park, N.C.). The source says: To investigate the reaction of NO with oxyHb, we begin by adopting the conventional viewpoint that: NO consumption involves a competition between the oxidation reaction (Eq. 1) and the adduct-forming addition reaction (Eq. 2); and that the specific rate constants for these reactions, namely kox and kadd, are independent of the degree of oxygen saturation (Y) of the hemes.
[Fe(II)NO]/[NO]0=1−Y/[1−Y+κY] [4]
HbA0 was obtained from Apex Bioscience (Research Triangle Park, N.C.). Buffer exchange was achieved by dialysis. Deoxygenation was performed by gas exchange with argon in a tonometer. NO was added from a stock solution prepared under ultrapure helium and purified across alkali and cold traps. Stock solutions of NO were prepared in phosphate buffered saline containing 100 μM DTPA, pH 7.4. NO injections were made via a gas tight Hamilton syringe with Teflon seal. The concentration of NO in stock solutions was assayed by electrode and by a Sievers 280 NO analyzer (Boulder Colo.).
EPR spectroscopy was carried out with samples in 4-mm i.d. fused silica tubes, at 76° K, on a Varian E-9 spectrometer. UV-visible spectra were taken after NO addition. The sample was then placed in a deoxygenated EPR tube and plunged into liquid N2. EPR spectra of nitrosylHb or dinitrosyl iron complexes (DNICs) were recorded in a single 4-min. scan over 400 G on a Varian E-9 spectrometer operating at 9.274 GHz, with 10-mW microwave power, 10-20 G amplitude of field modulation at 100 kHz, and time constant of 0.250 sec. Spectra of high-spin metHb were recorded with a scan of 1000 G, 20 G modulation amplitude, time constant of 0.128 sec, under otherwise identical conditions. NitrosylHb was measured by double integration of EPR spectra and by comparison to EPR spectra of Hb(NO)4 standardized with UV-visible spectroscopy. The reproducibility of nitrosylHb measurements was estimated to be ±6% by repeated trials.
(A) EPR spectra of iron-nitrosyl Hb derivatives formed by incubation of 19 μM NO with 393 μM Hb at various degrees of oxygen saturation in 10 mM phosphate buffer, pH 7.4. […]

On to `[N]=O` [NO, nitric oxide], for which the “decrease of K over the 0 to 80% range of oxygen saturation” value (10 mM phosphate) is 7 fold. Besides, the “decrease of K by extrapolation” value (10 mM phosphate, at 90% saturation) is 100 fold. Also, under “100 mM phosphate, pH 7.4, average of the two curves”, the “K (κ = kox/kadd) from fit of Eq. 4” value turned out to be 1.40±0.06.
